Read-outs that look alike come from different tables or passages of the source.
Legend:
Type in all cases: in vivo, humans
[1] = tested on: bitter taste of potassium lactate foodstuffs; test: Two-alternative forced choice (2AFC) sip and spit test of potassium lactate turkey foodstuff slurries; details: turkey slurry with potassium lactate (KLac) 4.5%, 1% EtOH, 2AFC vs KLac slurry standard, dash = at none of the tested conc.; for minimal effective concentration: Homo sapiens
Protocol: In a blind taste test, panelists received two portions of turkey slurry—one portion being the KCl foodstuff slurry standard and the other being one of the KCl test foodstuff slurries (each prepared as described in Example 5). The panelists tasted each of the portions by sipping and spitting. Each sample was tested in 2-4 discrete taste test experiments. Panelists were asked to rinse with water, eat a cracker, and wait about 10 minutes between samples. In each case, the panelists were asked to compare the bitter taste of the two turkey samples to each other (i.e. panelists were asked to indicate which sample was less bitter). Edible potassium lactate food compositions (“potassium lactate test foodstuff slurries”) were prepared as follows, Dehydrated, salt-free turkey powder was weighed and mixed with various amounts of potassium lactate and/or sodium lactate and then solubilized with boiling water to create a homogenized solubilized turkey slurry. Varying amounts of the test compounds were dissolved in an amount of ethanol or water (depending on the solubility of the compound) to create a 5 mg/mL stock compound solution. An amount of this stock compound solution was then added to the turkey slurry. Enough EtOH is then added to the resulting stock compound/turkey slurry so that the final slurry contains 1% EtOH. The final slurry was again homogenized by boiling and mixing and allowed to cool to yield the final slurry for taste testing. Potassium lactate foodstuff slurry standards were similarly prepared without any test compound. […] The effect of the test compounds on the perception of the bitter taste of potassium lactate foodstuffs in humans was evaluated using the two-alter native-forced-choice “sip and spit” test described in Example 6.

[2] = tested on: bitter taste of KCl foodstuff slurries; test: Two-alternative forced choice (2AFC) sip and spit test of KCl turkey foodstuff slurries; details: turkey slurry with KCl 1.6%, 1% EtOH, 2AFC vs KCl slurry standard, dash = at none of the tested conc.; for minimal effective concentration: Homo sapiens
Protocol: Edible KCl food compositions (“KCl test foodstuff slurries”) were prepared as follows. Dehydrated, salt-free turkey powder was weighed and mixed with various amounts of KCl and/or NaCl and then solubilized with boiling water to create a homogenized solubilized turkey slurry. Varying amounts of the test compounds were dissolved in an amount of ethanol or water (depending on the solubility of the compound) to create a 5 mg/mL stock compound solution. An amount of this stock compound solution was then added to the turkey slurry. Enough EtOH is then added to the resulting stock compound/turkey slurry so that the slurry contains 1% EtOH. The slurry was again homogenized by boiling and mixing and allowed to cool to yield the final KCl test foodstuff slurry for taste testing. KCl foodstuff slurry standards were similarly prepared without any test compound. […] The effect of the test compounds on the perception of the bitter taste of KCl foodstuff slurries in humans was evaluated using a two-alternative-forced-choice “sip and spit” test as follows. In a blind taste test, panelists received two portions of turkey slurry—one portion being the KCl foodstuff slurry standard and the other being one of the KCl test foodstuff slurries (each prepared as described in Example 5). The panelists tasted each of the portions by sipping and spitting. Each sample was tested in 2-4 discrete taste test experiments. Panelists were asked to rinse with water, eat a cracker, and wait about 10 minutes between samples. In each case, the panelists were asked to compare the bitter taste of the two turkey samples to each other (i.e. panelists were asked to indicate which sample was less bitter).

[3] = tested on: bitter taste of an aqueous solution of KCl; test: Sip and spit taste test of aqueous KCl test solutions, bitterness rated 0-15 against KCl solution standards; details: aqueous KCl 4.85 g/L, 1% EtOH, human panel, vs KCl solution standard, dash = at none of the tested conc.
Protocol: Edible KCl solution compositions (“KCl test solutions”) were prepared by first dissolving varying amounts of the test compounds in an amount of ethanol or water (depending on the solubility of the compound) to create a 5 mg/mL stock compound solution. An amount of this stock compound solution is then added to an aqueous KCl solution. Enough EtOH is then added to the resulting stock compound/KCl solution so that the final KCl test solution contains 1% EtOH. KCl solution standards were similarly prepared by dissolving various amounts of KCl in water and ethanol without adding any test compound. […] The effect of the test compounds on the perception of the bitter taste of an aqueous solution of KCl in humans was evaluated using a “sip and Spit” test as follows. A set of KCl solutions standards was developed and each standard solution was assigned a bitterness taste score of 0-15 (corresponding to aqueous KCl concentrations of 0 mM-120 mM). Panelists were trained to recognize these standards. In addition, before each day of testing, panelists were tested to see if they could determine differences in taste between the standard solutions, if a panelist was unable to recognize a change in KCl concentration, they were excluded from the panel for that day. In a blind taste test, panelists were asked to compare the bitter taste of a small quantity (e.g. 8 ml) of each of the KCl Test Solutions to the taste of a KCl solution standard, without swallowing (see, e.g., Table 1). Specifically, panelists were asked to rate the bitterness of each KCl Test Solution on a scale of 0-15 using the same scale developed for the KCl solution standards. Each sample was tested in 2-4 discrete taste test experiments. Panelists were asked to rinse with water, eat a cracker, and wait approximately 10 minutes between samples.

[4] = tested on: bitter taste of an aqueous solution of potassium lactate; test: Sip and spit taste test of aqueous potassium lactate test solutions; details: aqueous potassium lactate (KLac) 41 g/L, 1% EtOH, human panel, dash = at none of the tested conc.
Protocol: A set of KCl solutions standards was developed and each standard solution was assigned a bitterness taste score of 0-15 (corresponding to aqueous KCl concentrations of 0 mM-120 mM). Panelists were trained to recognize these standards. In addition, before each day of testing, panelists were tested to see if they could determine differences in taste between the standard solutions, if a panelist was unable to recognize a change in KCl concentration, they were excluded from the panel for that day. In a blind taste test, panelists were asked to compare the bitter taste of a small quantity (e.g. 8 ml) of each of the KCl Test Solutions to the taste of a KCl solution standard, without swallowing (see, e.g., Table 1). Specifically, panelists were asked to rate the bitterness of each KCl Test Solution on a scale of 0-15 using the same scale developed for the KCl solution standards. Each sample was tested in 2-4 discrete taste test experiments. Panelists were asked to rinse with water, eat a cracker, and wait approximately 10 minutes between samples. Edible potassium lactate solution compositions (“potassium lactate test solutions”) were prepared by first dissolving varying amounts of the test compounds in an amount of ethanol or water (depending on the solubility of the compound) to create a 5 mg/mL stock compound solution. An amount of this stock compound solution is then added to an aqueous potassium lactate solution. Enough EtOH is then added to the resulting stock compound/potassium lactate solution so that the final potassium lactate test solution contains 1% EtOH. Potassium lactate solution standards were similarly prepared by dissolving various amounts of potassium lactate in water and ethanol without adding any test compound. […] The effect of the test compounds on the perception of the bitter taste of an aqueous solution of potassium lactate in humans was evaluated using the “sip and spit” test described in Example 2.

[5] = read-out: Conc. at Which At Least 50% of Panelist Discerned Decrease in Bitter Taste and p ≦ 0.1
[6] = read-out: Conc. at Which At Least 50% of Panelist Discerned Decrease in Bitter Taste
[7] = read-out: Conc. Where Decrease in Bitter Taste Discerned and p ≦ 0.1
[8] = read-out: Conc. Where Decrease in Bitter Taste Was Discerned

SMILES | minimal effective concentration [1, 5] | minimal effective concentration [2, 5] | minimal effective concentration [1, 6] | minimal effective concentration [3, 7] | minimal effective concentration [3, 8] | Conc. Where Decrease in Bitter Taste Discerned and p ≦ 0.1 [3] | minimal effective concentration [4, 7] | other results
COC(=O)c1ccccc1NC(=O)c1c(I)cnn1C [Compound 24] | 30 µg/mL | 10 µg/mL |  |  |  |  |  | 
COC(=O)c1cccc2c1NC(c1ccc(Cl)cc1Cl)C1CC=CC21 (stereo not drawn) [Compound 38] |  |  | 30 µg/mL | 1 µg/mL | 1 µg/mL |  |  | 
Cc1ccc(NC(=O)C2COc3ccccc3O2)cc1Cl (stereo not drawn) [Compound 56] |  |  |  |  |  | 1 ppm |  | Conc. Where Decrease in Bitter Taste Discerned and p ≦ 0.1 [4]: 10 ppm; Conc. at Which At Least 50% of Panelist Discerned Decrease in Bitter Taste [1]: 1 ppm; Conc. at Which At Least 50% of Panelist Discerned Decrease in Bitter Taste and p ≦ 0.1 [1]: 1 ppm
O=C(O)c1cccc2c1NC(c1cccc(Br)c1)C1CC=CC21 (stereo not drawn) [Compound 37] | 10 µg/mL |  |  | 1 µg/mL | 1 µg/mL |  |  | 
CCOC(=O)c1ccccc1NC(=O)c1c(Cl)cnn1C [Compound 26] |  | 1 µg/mL | 30 µg/mL |  |  |  | 1 µg/mL | 
CCn1ncc(Br)c1C(=O)Nc1ccccc1C(=O)OC [Compound 23] |  |  |  |  |  | 40 ppm |  | Conc. at Which At Least 50% of Panelist Discerned Decrease in Bitter Taste and p ≦ 0.1 [1]: 1 ppm; Conc. Where Decrease in Bitter Taste Was Discerned [3]: 40 ppm
CCCC(=O)Nc1ccc(OC)c(Cl)c1 [Compound 49] | 30 µg/mL | 1 µg/mL | 30 µg/mL | 30 µg/mL | 30 µg/mL |  | 30 µg/mL | minimal effective concentration [4, 8]: 30 µg/mL; minimal effective concentration [2, 6]: 1 µg/mL
CCC(=O)Nc1ccc(OC)c(Cl)c1 [Compound 51] |  |  | 10 µg/mL | 15 µg/mL | 15 µg/mL |  |  | 
CCn1cc(Br)c(C(=O)Nc2ccccc2C(=O)OC)n1 [Compound 25] |  |  | 1 µg/mL |  |  |  | 10 µg/mL | minimal effective concentration [4, 8]: 10 µg/mL
Cc1ccc(NC(=O)CCOc2ccccc2)cc1Cl [Compound 53] |  |  |  |  |  | 25 ppm |  | Conc. Where Decrease in Bitter Taste Discerned and p ≦ 0.1 [4]: 1 ppm; Conc. Where Decrease in Bitter Taste Was Discerned [4]: 1 ppm; Conc. at Which At Least 50% of Panelist Discerned Decrease in Bitter Taste [1]: 30 ppm; Conc. Where Decrease in Bitter Taste Was Discerned [3]: 25 ppm; Conc. at Which At Least 50% of Panelist Discerned Decrease in Bitter Taste [2]: 30 ppm; Conc. at Which At Least 50% of Panelist Discerned Decrease in Bitter Taste and p ≦ 0.1 [2]: 30 ppm
